{"source": "patent US7271198B2", "about": "“Method of treating autoimmune diseases” (Wake Forest University, priority 2000, dated 2007)", "key": {"TGF-β1 protein": {"test_system": "TGF-β1 protein", "assay": "TGF-β1 protein secretion by PBMCs", "format": "cell-based, human", "method": "(§1) Gene expression of TGF-β1 was tested to determine if the gene expression is suppressed by deacetylation of histones in SLE. In this determination, SLE PBMCs or isolated T cells were treated with the histone deacetylase inhibitors (HDIs), TSA or SAHA, for 18hr. […] Subsequently, semi-quantitative PCR was performed to determine the amounts of […] transcripts in SLE and control T cells treated with vehicle or TSA (1000 ng/ml). […] There is no change in GAPDH transcript in normal and SLE T cells after treatment of HDIs. Increased TGF-β1 transcript was associated with a subsequent increase in TGF-β1 protein secretion by SLE PBMCs. When compared to vehicle treated PBMCs, total TGF-β1 protein in culture supernatants from SLE PBMCs increased by approximately 30%. In contrast, there was no increase in total TGF-β1 secretion in TSA treated cells in normal healthy controls. Similar results may be obtained by SAHA."}, "IL-6 protein": {"test_system": "IL-6 protein", "assay": "IL-6 protein secretion by MRL/lpr splenocytes", "format": "cell-based, mouse", "details": "splenocytes with LPS and IFN-γ 72 hr; stimulated control 34.4±7.6 pg/ml; p=0.002", "method": "(§2) In determining whether TSA or SAHA down-regulate IL-6 mRNA content, splenocytes from 24-wk MRL/lpr mice were treated with increasing concentrations of TSA for 18 hr. […] TSA decreased IL-6 transcript at a concentration of 100 ng/ml and exerted maximal inhibition at 300 ng/ml. To address whether TSA and SAHA down-regulate LPS- and IFN-γ induced IL-6 transcript levels, splenocytes from younger MRL/lpr mice were treated in the absence or presence of TSA or SAHA for 18 hr before LPS and IFN-γ stimulation for 6 or 18 hr. […] Next, the effect of TSA and SAHA on IL-6 protein secretion in stimulated splenocytes was measured (FIG. 10D). When splenocytes were cultured with LPS and IFN-γ for 72 hr, there was a mean (±SEM) 34.4±7.6 pg/ml of IL-6 protein secretion."}, "IL-10 mRNA [1]": {"test_system": "IL-10 mRNA", "assay": "IL-10 mRNA in MRL/lpr splenocytes", "format": "cell-based, mouse", "method": "In investigating whether TSA down-regulates IL-10 mRNA, MRL/lpr splenocytes were treated with increasing concentrations of TSA. The heightened, constitutive expression of IL-10 mRNA confirms previous findings (FIGS. 11A & 11B, lane 1). […] To address whether TSA and SAHA down-regulate LPS- and IFN-γ induced IL-10 transcript, splenocytes from 10-wk old MRL/lpr mice were treated in the absence or presence of TSA or SAHA for 18 hr before LPS and IFN-γ stimulation for 6 or 18 hr."}, "IL-10 mRNA [2]": {"test_system": "IL-10 mRNA", "assay": "RT-PCR of IL-10 transcript in SLE T cells", "format": "cell-based, human", "method": "T cells were cultured in the absence or presence of increasing concentrations of TSA for 18 hr in 5% CO2 at 37° C. RNA was isolated, cDNAs were prepared, and RT-PCR was performed as previously detailed (D. Laxminarayana, et al., J. Clin. Invest. 92, 2207 (1993)). The primers used were: […]\nThe reaction mixtures were subjected to 30 cycles of denaturation (94° C., 1 min) and annealing for 1 min at 53° C. (CD154), […] (GAPDH) and 55° C. (IL-10 and IFN-γ). Extension was for 2 min at 72° C. with a final extension of 7 min at 72° C. using a DNA thermal cycler (Perkin-Elmer).\n(§3) To determine whether TSA could down-regulate IL-10, a dose-response analysis was performed. […] However, when SLE T cells were cultured in the presence of TSA for 18 hr, no detectable IL-10 transcripts were identified (FIG. 2C, lanes 3, 6, 9). When IL-10 transcripts from all eight SLE subjects were quantified relative to GAPDH transcripts, TSA inhibited expression of IL-10 mRNA by 71% (FIG. 2D; P=0.029). […] IL-10 and IFN-γ protein production were quantified by ELISA (R & D Systems, Minneapolis, Minn.). […] Thus, like CD154, TSA was able to block expression of IL-10 transcript, abolishing IL-10 production by SLE T cells."}, "TGF-β1 mRNA": {"test_system": "TGF-β1 mRNA", "assay": "PCR of TGF-β1 mRNA in SLE and control T cells / PBMCs", "format": "cell-based, human", "method": "as §1"}, "IL-6 mRNA": {"test_system": "IL-6 mRNA", "assay": "IL-6 mRNA in MRL/lpr splenocytes", "format": "cell-based, mouse", "method": "as §2"}, "MRL/lpr mice": {"test_system": "MRL/lpr mice", "assay": "In vivo TSA in 26 week old MRL/lpr mice (5 mg/kg s.c. daily), proteinuria", "design": "species or system mouse", "description": "The effect of TSA on proteinuria and nitric oxide secretion and increased survival in 26 week old MRL/lpr mice was examined. In this age group, MRL/lpr mice developed full-blown disease with evidence of proliferative immune-complex-mediated glomerulo-nephritis, vasculitis, arthritis, and massive lymphadenopathy. Most of the mice expired by the age of 30 weeks. […] Urine was collected for a 24 hr time period on days 0, 7 and 14, and measured for protein and nitric oxide. Toxicity of TSA is being assessed by monitoring body weight, infection, abnormal behavior and survival of treated mice."}, "IL-10 protein": {"test_system": "IL-10 protein", "assay": "IL-10 protein production by SLE T cells (ELISA)", "format": "cell-based, human", "method": "as §3"}, "IL-12 p40 protein": {"test_system": "IL-12 p40 protein", "assay": "IL-12 p40 protein secretion by MRL/lpr splenocytes", "format": "cell-based, mouse", "details": "splenocytes stimulated with LPS and IFN-γ 24 hr; stimulated control 45.3±9.1; p=0.003", "method": "When splenocytes were activated with LPS (100 μg/ml) and IFN-γ 100U/ml) for 24 hr the mean (±SEM) IL-12 p40 secretion was 45.3±9.1 pg/ml."}, "[3]": {"details": "SLE PBMCs exposed to TSA and SAHA (summary statement)"}, "[4]": {"details": "splenocytes from 24-wk MRL/lpr mice, 18 hr"}}, "note": "Where “and” joins values, the source holds several entries; their conditions need not be identical. Equal entries are not always repeated."}
{"compound": "CC(/C=C/C(=O)NO)=C\\[C@@H](C)C(=O)c1ccc(N(C)C)cc1", "note": "[TSA, Trichostatin A]", "values": [{"measurement": "rise in the synthesis of TGF-β1 protein", "setting": "TGF-β1 protein; [3]", "result": 30, "unit": "%"}, {"measurement": "increase of total TGF-β1 protein in culture supernatants", "setting": "TGF-β1 protein; SLE PBMCs, compared to vehicle treated PBMCs", "result": "approximately 30%"}, {"measurement": "total TGF-β1 secretion", "setting": "TGF-β1 protein; TSA treated cells of normal healthy controls", "result": "no increase"}, {"measurement": "IL-6 protein secretion", "setting": "IL-6 protein", "result": "no detectable IL-6 protein secretion"}, {"measurement": "TSA dose that down-regulated IL-10 mRNA", "setting": "IL-10 mRNA [1]; MRL/lpr splenocytes, constitutive expression", "result": 300, "unit": "ng/mL"}, {"measurement": "LPS- and IFN-γ induced IL-10 mRNA", "setting": "IL-10 mRNA [1]; splenocytes from 10-wk old MRL/lpr mice pretreated 18 hr, stimulated 6 or 18 hr", "result": "no detectable IL-10 mRNA"}, {"measurement": "TSA concentration at which no detectable IL-10 mRNA was identified", "setting": "IL-10 mRNA [2]; SLE T cells, dose-response, RT-PCR", "result": "700 to 800", "unit": "ng/mL"}, {"measurement": "inhibition of expression of IL-10 mRNA", "setting": "IL-10 mRNA [2]; eight SLE subjects, TSA 1000 ng/ml 18 hr, relative to GAPDH, P=0.029", "result": 71, "unit": "%"}, {"measurement": "increase in TGF-β1 transcript", "setting": "TGF-β1 mRNA; [3]", "result": "eight-fold"}, {"measurement": "induction of TGF-β1 mRNA compared to vehicle treated cells", "setting": "TGF-β1 mRNA; SLE T cells, 1000 ng/ml TSA, 18 hr, real time PCR", "result": 8, "unit": "fold"}, {"measurement": "TGF-β1 mRNA levels, semi-quantitative PCR", "setting": "TGF-β1 mRNA; SLE T cells, TSA 1000 ng/ml", "result": "increased"}, {"measurement": "TGF-β1 mRNA change", "setting": "TGF-β1 mRNA; SLE T cells, TSA concentrations to 500 ng/ml", "result": "modest increase"}, {"measurement": "TSA concentration of maximal inhibition of IL-6 transcript", "setting": "IL-6 mRNA; [4]", "result": 300, "unit": "ng/mL"}, {"measurement": "TSA concentration that decreased IL-6 transcript", "setting": "IL-6 mRNA; [4]", "result": 100, "unit": "ng/mL"}, {"measurement": "LPS- and IFN-γ induced IL-6 mRNA", "setting": "IL-6 mRNA; splenocytes from younger MRL/lpr mice pretreated 18 hr, stimulated 6 or 18 hr", "result": "no detectable IL-6 mRNA"}, {"measurement": "proteinuria in day 7 and day 14 compared to day 0", "setting": "MRL/lpr mice; 26 week old MRL/lpr mice, 5 mg/kg TSA s.c. daily, in comparison to vehicle", "result": "less proteinuria"}, {"measurement": "Proteinuria, DAY 0", "setting": "MRL/lpr mice; individual 26 week old MRL/lpr mice of TSA group, day 0 (baseline), 24 hr urine", "result": "964 µg/day and 10 µg/day and 16689 µg/day and 213 µg/day and 14420 µg/day and 107 µg/day and 5 µg/day"}, {"measurement": "Proteinuria, DAY 7", "setting": "MRL/lpr mice; individual 26 week old MRL/lpr mice, 5 mg/kg TSA s.c. daily, day 7, 24 hr urine, 5 mg/kg", "result": "340 µg/day and 4.6 µg/day and 274 µg/day and 54 µg/day and 4701 µg/day and 80 µg/day and 9 µg/day"}, {"measurement": "Proteinuria, DAY 14", "setting": "MRL/lpr mice; individual 26 week old MRL/lpr mice, 5 mg/kg TSA s.c. daily, day 14, 24 hr urine, 5 mg/kg", "result": "242 µg/day and 4.3 µg/day and 865 µg/day and 82 µg/day and 3081 µg/day and 25 µg/day and 10 µg/day"}, {"measurement": "inhibition of IL-10 synthesis", "setting": "IL-10 protein; SLE T cells, at 24 hr", "result": "complete inhibition"}, {"measurement": "inhibition of IL-10 production", "setting": "IL-10 protein; SLE T cells, within 6 hr", "result": 90, "unit": "%"}, {"measurement": "TSA concentration of maximal inhibition of IL-10 protein production", "setting": "IL-10 protein; T cells from eight SLE subjects, 18 hr", "result": 300, "unit": "ng/mL"}, {"measurement": "IL-12 p40 secretion (mean±SEM)", "setting": "IL-12 p40 protein", "result": "1.5 ± 1.4", "unit": "pg/mL"}]}
